Results published in patent publication US20100152434A1, “Protein Kinase-binding Nucleosides and Associated Methods” (priority 2007, published 2010).
Where two headings read alike, the source gives them in different places.

Assays:
UACC-62 = test: cells; details: Homo sapiens
IGROV1 = test: cells; details: Homo sapiens
OVCAR-4 = test: cells; details: Homo sapiens
RPMI-8226 = test: cells; details: Homo sapiens
RXF 393 = test: cells; details: Homo sapiens
MDA-MB-231/ATCC [1] = test: cells; details: Homo sapiens
MDA-MB-435 = test: cells; details: Homo sapiens
NCI-H322M = test: cells; details: Homo sapiens, NCI-H322M
SN12C = test: cells; details: Homo sapiens
A498 = test: cells; details: Homo sapiens
MDA-MB-231/ATCC [2] = tested on: MDA-MB-231/ATCC
NCI-H522 = test: cells; details: Homo sapiens

SMILES: CNC(=O)NC[C@H]1O[C@@H](n2cnc3c(NC(=O)Nc4ccccc4)ncnc32)[C@H](O[Si](C)(C)C(C)(C)C)[C@@H]1CC(=O)N(C)OC [Compound 13, 2′-O-(tert-Butyldimethylsilyl)-3′,5′-dideoxy-3′-[(N-methoxy-N-methylcarboxamido)methyl]-5′-[(N-methylcarbamoyl)amino]-N^6-(N-phenylcarbamoyl)adenosine]
- GI50 (UACC-62; UACC-62): 41.9 µM
- CC50 (UACC-62; UACC-62, read-out: LC50): > 100 µM
- TGI (SF-539): >1.00E−4 Molar
- Percent Growth (SF-539; Log10 Concentration −4.0): 23%
- Percent Growth (SF-539; Log10 Concentration −5.0): 65%
- Percent Growth (SF-539; Log10 Concentration −6.0): 89%
- Percent Growth (SF-539; Log10 Concentration −7.0): 94%
- Percent Growth (SF-539; Log10 Concentration −8.0): 96%
- TGI (OVCAR-8): >1.00E−4 Molar
- Percent Growth (OVCAR-8; Log10 Concentration −4.0): 22%
- Percent Growth (OVCAR-8; Log10 Concentration −5.0): 48%
- Percent Growth (OVCAR-8; Log10 Concentration −6.0): 103%
- Percent Growth (OVCAR-8; Log10 Concentration −7.0): 106%
- Percent Growth (OVCAR-8; Log10 Concentration −8.0): 107%
- GI50 (IGROV1; IGROV-1): 3.72 µM
- CC50 (IGROV1; IGROV-1, read-out: LC50): > 100 µM
- GI50 (OVCAR-4; OVCAR-4): 53 µM
- CC50 (OVCAR-4; OVCAR-4, read-out: LC50): > 100 µM
- TGI (SK-MEL-2): 8.31E−5 Molar
- Percent Growth (SK-MEL-2; Log10 Concentration −4.0): −5%
- Percent Growth (SK-MEL-2; Log10 Concentration −5.0): 62%
- Percent Growth (SK-MEL-2; Log10 Concentration −6.0): 92%
- Percent Growth (SK-MEL-2; Log10 Concentration −7.0): 83%
- Percent Growth (SK-MEL-2; Log10 Concentration −8.0): 85%
- TGI (A549/ATCC): >1.00E−4 Molar
- Percent Growth (A549/ATCC; Log10 Concentration −4.0): 27%
- Percent Growth (A549/ATCC; Log10 Concentration −5.0): 49%
- Percent Growth (A549/ATCC; Log10 Concentration −6.0): 97%
- Percent Growth (A549/ATCC; Log10 Concentration −7.0): 100%
- Percent Growth (A549/ATCC; Log10 Concentration −8.0): 97%
- TGI (MALME-3M): >1.00E−4 Molar
- Percent Growth (MALME-3M; Log10 Concentration −4.0): 23%
- Percent Growth (MALME-3M; Log10 Concentration −5.0): 52%
- Percent Growth (MALME-3M; Log10 Concentration −6.0): 93%
- Percent Growth (MALME-3M; Log10 Concentration −7.0): 88%
- Percent Growth (MALME-3M; Log10 Concentration −8.0): 103%
- TGI (OVCAR-3): >1.00E−4 Molar
- Percent Growth (OVCAR-3; Log10 Concentration −4.0): 6%
- Percent Growth (OVCAR-3; Log10 Concentration −5.0): 41%
- Percent Growth (OVCAR-3; Log10 Concentration −6.0): 100%
- Percent Growth (OVCAR-3; Log10 Concentration −7.0): 107%
- Percent Growth (OVCAR-3; Log10 Concentration −8.0): 95%
- GI50 (RPMI-8226; RPMI-8226): 1.58 µM
- CC50 (RPMI-8226; RPMI-8226, read-out: LC50): > 100 µM
- TGI (SF-268): >1.00E−4 Molar
- Percent Growth (SF-268; Log10 Concentration −4.0): 20%
- Percent Growth (SF-268; Log10 Concentration −5.0): 46%
- Percent Growth (SF-268; Log10 Concentration −6.0): 91%
- Percent Growth (SF-268; Log10 Concentration −7.0): 105%
- Percent Growth (SF-268; Log10 Concentration −8.0): 98%
- TGI (CCRF-CEM): >1.00E−4 Molar
- Percent Growth (CCRF-CEM; Log10 Concentration −4.0): 23%
- Percent Growth (CCRF-CEM; Log10 Concentration −5.0): 39%
- Percent Growth (CCRF-CEM; Log10 Concentration −6.0): 96%
- Percent Growth (CCRF-CEM; Log10 Concentration −7.0): 100%
- Percent Growth (CCRF-CEM; Log10 Concentration −8.0): 101%
- TGI (LOX IMVI): >1.00E−4 Molar
- Percent Growth (LOX IMVI; Log10 Concentration −4.0): 35%
- Percent Growth (LOX IMVI; Log10 Concentration −5.0): 43%
- Percent Growth (LOX IMVI; Log10 Concentration −6.0): 94%
- Percent Growth (LOX IMVI; Log10 Concentration −7.0): 96%
- Percent Growth (LOX IMVI; Log10 Concentration −8.0): 97%
- GI50 (RXF 393; RXF 393): 9.74 µM
- CC50 (RXF 393; RXF 393, read-out: LC50): > 100 µM
- GI50 (MDA-MB-231/ATCC [1]; MDA-MB-231): 12.3 µM
- CC50 (MDA-MB-231/ATCC [1]; MDA-MB-231, read-out: LC50): > 100 µM
- TGI (SNB-19): >1.00E−4 Molar
- Percent Growth (SNB-19; Log10 Concentration −4.0): 51%
- Percent Growth (SNB-19; Log10 Concentration −5.0): 61%
- Percent Growth (SNB-19; Log10 Concentration −6.0): 83%
- Percent Growth (SNB-19; Log10 Concentration −7.0): 93%
- Percent Growth (SNB-19; Log10 Concentration −8.0): 94%
- TGI (CAKI-1): >1.00E−4 Molar
- Percent Growth (CAKI-1; Log10 Concentration −4.0): 47%
- Percent Growth (CAKI-1; Log10 Concentration −5.0): 57%
- Percent Growth (CAKI-1; Log10 Concentration −6.0): 76%
- Percent Growth (CAKI-1; Log10 Concentration −7.0): 72%
- Percent Growth (CAKI-1; Log10 Concentration −8.0): 85%
- GI50 (MDA-MB-435; MDA-MB-435): 10.9 µM
- CC50 (MDA-MB-435; MDA-MB-435, read-out: LC50): > 100 µM
- GI50 (NCI-H322M): > 100 µM
- CC50 (NCI-H322M; read-out: LC50): > 100 µM
- TGI (EKVX): >1.00E−4 Molar
- Percent Growth (EKVX; Log10 Concentration −4.0): 36%
- Percent Growth (EKVX; Log10 Concentration −5.0): 60%
- Percent Growth (EKVX; Log10 Concentration −6.0): 95%
- Percent Growth (EKVX; Log10 Concentration −7.0): 95%
- Percent Growth (EKVX; Log10 Concentration −8.0): 94%
- TGI (HCT-15): >1.00E−4 Molar
- Percent Growth (HCT-15; Log10 Concentration −4.0): 37%
- Percent Growth (HCT-15; Log10 Concentration −5.0): 40%
- Percent Growth (HCT-15; Log10 Concentration −6.0): 93%
- Percent Growth (HCT-15; Log10 Concentration −7.0): 94%
- Percent Growth (HCT-15; Log10 Concentration −8.0): 96%
- GI50 (SN12C): 85.3 µM
- CC50 (SN12C; read-out: LC50): > 100 µM
- GI50 (A498; A498): 3.87 µM
- CC50 (A498; A498, read-out: LC50): > 100 µM
- TGI (MDA-MB-231/ATCC [2]): >1.00E−4 Molar
- Percent Growth (MDA-MB-231/ATCC [2]; Log10 Concentration −4.0): 5%
- Percent Growth (MDA-MB-231/ATCC [2]; Log10 Concentration −5.0): 55%
- Percent Growth (MDA-MB-231/ATCC [2]; Log10 Concentration −6.0): 94%
- Percent Growth (MDA-MB-231/ATCC [2]; Log10 Concentration −7.0): 104%
- Percent Growth (MDA-MB-231/ATCC [2]; Log10 Concentration −8.0): 97%
- GI50 (NCI-H522; NCI-H522): 11.1 µM
- CC50 (NCI-H522; NCI-H522, read-out: LC50): > 100 µM
